Measurements from paper PMC6508677, “Identification of druggable small molecule antagonists of the Plasmodium falciparum hexose transporter PfHT and assessment of ligand access to the glucose permeation pathway via FLAG-mediated protein engineering” (PLoS ONE, 2019).
Several values for one entry are separate records, joined by “and”; a condition that tells them apart may be missing. Identical values can stand only once. Like-named read-outs stand apart in the source and are kept apart here.

What was measured:
[1] = target: T1, PfHT (Plasmodium falciparum, UniProt Q7KWJ5); experiment: 2-DG uptake by HEK293 cells overexpressing PfHT; assay type: cell-based; design: expressed in transfected cells; host or cells: HEK293 (HEK293-FLIP, native hGLUT1 knocked down by shRNA)
T1 sequence (Q7KWJ5 1-504): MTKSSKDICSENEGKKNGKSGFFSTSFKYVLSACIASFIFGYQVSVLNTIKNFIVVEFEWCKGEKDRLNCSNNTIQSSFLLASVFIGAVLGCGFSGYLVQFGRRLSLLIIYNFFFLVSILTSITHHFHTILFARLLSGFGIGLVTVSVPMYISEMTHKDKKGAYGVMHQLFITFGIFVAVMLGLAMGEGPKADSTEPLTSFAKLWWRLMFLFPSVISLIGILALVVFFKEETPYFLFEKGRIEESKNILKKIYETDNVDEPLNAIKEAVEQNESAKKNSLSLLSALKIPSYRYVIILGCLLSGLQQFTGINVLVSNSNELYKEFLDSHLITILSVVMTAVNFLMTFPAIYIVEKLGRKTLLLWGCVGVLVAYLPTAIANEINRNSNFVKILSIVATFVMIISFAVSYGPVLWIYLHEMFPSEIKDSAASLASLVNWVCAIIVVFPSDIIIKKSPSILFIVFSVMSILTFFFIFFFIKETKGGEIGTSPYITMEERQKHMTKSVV
Procedure, shortened: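 Stably transfected HEK293 lines (FRET glucose sensor; native hGLUT1 knocked down by shRNA; GLUT8 with E7R/E8R to keep it at the membrane) preincubated 30 min at 37°C with compound in glucose-free HBSS. Radiolabeled hexose uptake then run 2 min (D-fructose) or 4 min (2-DG) at 37°C, counted by scintillation, protein-normalized and expressed as % of vehicle.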

[2] = target: T2, FTPfHT (Plasmodium falciparum, UniProt Q7KWJ5); experiment: 2-DG uptake by HEK293 cells overexpressing FLAG-tagged PfHT (FTPfHT); assay type: cell-based; design: the 38–40 kDa band represents full length PfHT; expressed in transfected cells; host or cells: HEK293-FLIP (HEK293)
T2 sequence (Q7KWJ5 1-504): T1 sequence (Q7KWJ5 1-504)
Source text: Generation of HEK293 cells overexpressing PfHT and human GLUTs 1–4 were described elsewhere. Briefly, HEK293 cells were transfected with pcDNA3.1 FLII12Pglu-7006 (Addgene), containing the fluorescence resonance energy transfer (FRET) glucose sensor (HEK293-FLIP) and PfHT, human GLUT1 (hGLUT1), hGLUT2, hGLUT3, hGLUT4, hGLUT5 or hGLUT8 using Optifect (Life Technologies) according to manufacturer’s specifications. To increase retention of GLUT8 at the plasma membrane, the dileucine sorting signal E^7E^8XXXLL was modified to R^7R^8XXXLL as described in [17]. Stable transfectants were selected for G418 and hygromycin resistance to select for FRET sensor and hexose transporter, respectively. HEK293-FLIP cells were also used to generate cells stably transfected with FLAG-tagged PfHT (FTPfHT). FLAG tag ([…]) followed by a triple glycine linker and a tobacco etch virus (TEV) protease site (ENLYFQS) followed by a triple glycine linker was added to the N-terminus of PfHT via PCR [18] using Phusion Hot Start II High-Fidelity DNA Polymerase (Fisher Scientific). Single clones were selected by comparing their abilities to transport glucose as assayed via FRET and radiolabeled hexose uptake. In all cell lines, except for HEK293 cells overexpressing hGLUT1 and hGLUT5, native hGLUT1 was knocked down using shRNA as described elsewhere. Transcript levels of the individual GLUTs expressed in each cell line are as described in [13, 15] and in S1 Fig.
Glucose uptake by P. falciparum was performed essentially as described. P. falciparum strain 3D7 was cultured in 100 mm tissue culture dishes (Techno Plastic Products) in a 2% suspension of human erythrocytes and RPMI 1640 medium until reaching > 7.5% parasitemia. Cells were pelleted via centrifugation and resuspended in RPMI 1640 medium. To determine the uptake of radiolabeled glucose into the parasite, parasites were isolated from infected erythrocytes by permeablization with saponin (0.05 w/v), followed by centrifugation, aspiration of supernatant and washing of the pellet 3X with saline solution (135 mM NaCl, 2 mM KCl, 25 mM HEPES, 0.2 mM glucose and 1 mM MgCl2; pH 7.1) to remove cellular debris. WU-1 or DMSO vehicle were added to 100 μl parasites (resuspended in saline) 5 min prior to the addition of 100 μl [^14C]2-DOG (0.2- μCi/ml final concentration). 2-DG uptake was stopped after 2 min by layering the entire reaction over 300 μl of an oil mixture (5:4 mix of dibutyl phthalate / dinonyl phthalate) in Eppendorf tubes and centrifuged at 15,850 × g for 2 mins. The ratio of the estimated intracellular concentration of radiolabel relative to the extracellular concentration were calculated as described. Uptake of radiolabeled hexose into HEK293 cells was measured in glucose-free HBSS as described previously. Briefly, cells were plated at 400,000 cells/well overnight at 37°C in 24-well plates pre-treated with PEI. After 30-min incubation at 37°C in glucose-free HBSS in the presence of vehicle or increasing concentrations of compound, 2-DG uptake was measured in glucose-free HBSS for 4 min at 37°C. Cultures were washed in ice-cold 1X PBS and lysed in 0.1% Triton X-100 in 1X PBS. Radiolabeled hexose uptake was determined by liquid scintillation counting (Ultima Gold, Thermo Fisher) and normalized to total protein per well. Uptake data are plotted as percent uptake relative to vehicle-treated cells. Kinetic analyses were performed using the indicated concentrations of substrate and WU-1, with quenching of uptake after 1 min incubation. Incubation times had been previously determined as being in the linear range of time-dependent radiolabeled hexose uptake (2 min for 2-DG uptake into freed parasites; 2 and 4 min for D-Frc and 2-DG uptake HEK cell lines, respectively). Data were fit by least squares nonlinear regression analysis using GraphPad Prism 6.0 software.

In the case of `C=C1[C@@H](C)[C@H]2[C@H](Cc3ccccc3)NC(=O)[C@]23OC(=O)/C=C/[C@H](O)CCC[C@@H](C)C/C=C/[C@H]3[C@@H]1O` [CB, cytochalasin B], the IC50 ([1]; AVE IC50 (µM), PfHT, 2-DG Uptake, average of Expt 1-3) is reported as 10.9 µM, the remaining activity at 0.001 µM ([1]; HEK293, 4 min, read-out: 2-DG Uptake AVE, PfHT, concentration 0.001 µM, Expt 1-3) is reported as 100% and the remaining activity at 0.3906 µM ([1]; HEK293, 4 min, read-out: 2-DG Uptake AVE, PfHT, concentration 0.3906 µM) is reported as 95.3%. It also gave a remaining activity at 0.7812 µM ([1]; HEK293, 4 min, read-out: 2-DG Uptake AVE, PfHT, concentration 0.7812 µM) of 96.2%, a remaining activity at 1.56 µM ([1]; HEK293, 4 min, read-out: 2-DG Uptake AVE, PfHT, concentration 1.56 µM) of 90.6% and a remaining activity at 3.125 µM ([1]; HEK293, 4 min, read-out: 2-DG Uptake AVE, PfHT, concentration 3.125 µM) of 71%. The remaining activity at 6.25 µM ([1]; HEK293, 4 min, read-out: 2-DG Uptake AVE, PfHT, concentration 6.25 µM) was 64.5%, the remaining activity at 12.5 µM ([1]; HEK293, 4 min, read-out: 2-DG Uptake AVE, PfHT, concentration 12.5 µM) was 47.3% and the remaining activity at 25 µM ([1]; HEK293, 4 min, read-out: 2-DG Uptake AVE, PfHT, concentration 25 µM) was 30.6%. It also gave a remaining activity at 50 µM ([1]; HEK293, 4 min, read-out: 2-DG Uptake AVE, PfHT, concentration 50 µM) of 22.1%, a remaining activity at 100 µM ([1]; HEK293, 4 min, read-out: 2-DG Uptake AVE, PfHT, concentration 100 µM) of 12.7% and a remaining activity at 200 µM ([1]; HEK293, 4 min, read-out: 2-DG Uptake AVE, PfHT, concentration 200 µM) of 7.58%. For the same compound, the remaining activity at 400 µM ([1]; HEK293, 4 min, read-out: 2-DG Uptake AVE, PfHT, concentration 400 µM) was 4.31%, the IC50 ([1]; IC50 (µM), PfHT, 2-DG Uptake, single experiments Expt 1-3) was 10.3 µM and 12.6 µM and 9.78 µM and the IC50 ([1]; IC50 for inhibition of 2-DG uptake, HEK293 cells overexpressing PfHT, mean/reported value) was 10.9 ± 0.9 µM. The IC50 ([2]; FTPfHT, 2-DG Uptake, average of Expt 1-3, read-out: AVE IC50) was 29.9 µM, the IC50 ([2]; FTPfHT, 2-DG Uptake, single experiments Expt 1-3, read-out: IC50) was 26.6 µM and 30.5 µM and 32.6 µM and the remaining activity at 0.001 µM ([2]; HEK293, 4 min, FTPfHT, concentration 0.001 µM, Expt 1-3, read-out: 2-DG Uptake AVE) was 100%. For the same compound, the remaining activity at 0.3906 µM ([2]; HEK293, 4 min, FTPfHT, concentration 0.3906 µM, read-out: 2-DG Uptake AVE) was 97.8%, the remaining activity at 0.7812 µM ([2]; HEK293, 4 min, FTPfHT, concentration 0.7812 µM, read-out: 2-DG Uptake AVE) was 93.2% and the remaining activity at 1.56 µM ([2]; HEK293, 4 min, FTPfHT, concentration 1.56 µM, read-out: 2-DG Uptake AVE) was 95.4%. The remaining activity at 3.125 µM ([2]; HEK293, 4 min, FTPfHT, concentration 3.125 µM, read-out: 2-DG Uptake AVE) was 90%, the remaining activity at 6.25 µM ([2]; HEK293, 4 min, FTPfHT, concentration 6.25 µM, read-out: 2-DG Uptake AVE) was 81.9% and the remaining activity at 12.5 µM ([2]; HEK293, 4 min, FTPfHT, concentration 12.5 µM, read-out: 2-DG Uptake AVE) was 72.3%. The remaining activity at 25 µM ([2]; HEK293, 4 min, FTPfHT, concentration 25 µM, read-out: 2-DG Uptake AVE) was 56%, the remaining activity at 50 µM ([2]; HEK293, 4 min, FTPfHT, concentration 50 µM, read-out: 2-DG Uptake AVE) was 44.6% and the remaining activity at 100 µM ([2]; HEK293, 4 min, FTPfHT, concentration 100 µM, read-out: 2-DG Uptake AVE) was 32.2%. It also gave a remaining activity at 200 µM ([2]; HEK293, 4 min, FTPfHT, concentration 200 µM, read-out: 2-DG Uptake AVE) of 22.7%, a remaining activity at 400 µM ([2]; HEK293, 4 min, FTPfHT, concentration 400 µM, read-out: 2-DG Uptake AVE) of 12.9% and an IC50 ([2]; IC50 for inhibition of 2-DG uptake, HEK293 cells overexpressing FTPfHT) of 29.9 ± 1.8 µM.
